# Laboratory results from ChEMBL document CHEMBL4304811, “Development of a Water-Soluble Indolylmaleimide Derivative IM-93 Showing Dual Inhibition of Ferroptosis and NETosis” (ACS Med Chem Lett, 2019).
# Tests used:
# [1] = target: Mitogen-activated protein kinase 10 (Homo sapiens) (UniProt P53779); experiment: Binding affinity to wild-type human partial length JNK3 (V28 to Q422 residues) expressed in mammalian expression system assessed as residual binding level at 10 uM by Kinomescan method relative to control
# [2] = target: Cyclin-dependent kinase 18 (Homo sapiens) (UniProt Q07002); experiment: Binding affinity to wild-type human full length PCTK3 (M3 to F474 residues) expressed in bacterial expression system assessed as residual binding level at 10 uM by Kinomescan method relative to control
# Chain of Cyclin-dependent kinase 18 (Homo sapiens) (Q07002 whole entry, the tested form may be a part): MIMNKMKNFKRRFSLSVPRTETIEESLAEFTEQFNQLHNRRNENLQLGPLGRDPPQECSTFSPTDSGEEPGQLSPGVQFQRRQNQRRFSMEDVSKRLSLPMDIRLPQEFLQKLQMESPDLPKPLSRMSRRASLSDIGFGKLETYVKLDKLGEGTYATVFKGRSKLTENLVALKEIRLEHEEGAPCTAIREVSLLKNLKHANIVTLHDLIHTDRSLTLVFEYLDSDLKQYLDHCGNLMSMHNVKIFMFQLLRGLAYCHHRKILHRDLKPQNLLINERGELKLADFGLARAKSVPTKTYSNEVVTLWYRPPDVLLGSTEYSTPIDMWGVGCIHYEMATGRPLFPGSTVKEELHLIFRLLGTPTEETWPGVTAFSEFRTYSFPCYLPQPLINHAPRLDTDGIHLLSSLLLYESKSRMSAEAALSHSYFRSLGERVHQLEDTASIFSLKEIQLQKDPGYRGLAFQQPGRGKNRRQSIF
# [3] = target: Ribosomal protein S6 kinase alpha-1 (Homo sapiens) (UniProt Q15418); experiment: Binding affinity to wild-type human partial length C- terminal RSK1 kinase domain 2 (P360 to L681 residues) expressed in bacterial expression system assessed as residual binding level at 10 uM by Kinomescan method relative to control
# Chain of Ribosomal protein S6 kinase alpha-1 (Homo sapiens) (Q15418 whole entry, the tested form may be a part): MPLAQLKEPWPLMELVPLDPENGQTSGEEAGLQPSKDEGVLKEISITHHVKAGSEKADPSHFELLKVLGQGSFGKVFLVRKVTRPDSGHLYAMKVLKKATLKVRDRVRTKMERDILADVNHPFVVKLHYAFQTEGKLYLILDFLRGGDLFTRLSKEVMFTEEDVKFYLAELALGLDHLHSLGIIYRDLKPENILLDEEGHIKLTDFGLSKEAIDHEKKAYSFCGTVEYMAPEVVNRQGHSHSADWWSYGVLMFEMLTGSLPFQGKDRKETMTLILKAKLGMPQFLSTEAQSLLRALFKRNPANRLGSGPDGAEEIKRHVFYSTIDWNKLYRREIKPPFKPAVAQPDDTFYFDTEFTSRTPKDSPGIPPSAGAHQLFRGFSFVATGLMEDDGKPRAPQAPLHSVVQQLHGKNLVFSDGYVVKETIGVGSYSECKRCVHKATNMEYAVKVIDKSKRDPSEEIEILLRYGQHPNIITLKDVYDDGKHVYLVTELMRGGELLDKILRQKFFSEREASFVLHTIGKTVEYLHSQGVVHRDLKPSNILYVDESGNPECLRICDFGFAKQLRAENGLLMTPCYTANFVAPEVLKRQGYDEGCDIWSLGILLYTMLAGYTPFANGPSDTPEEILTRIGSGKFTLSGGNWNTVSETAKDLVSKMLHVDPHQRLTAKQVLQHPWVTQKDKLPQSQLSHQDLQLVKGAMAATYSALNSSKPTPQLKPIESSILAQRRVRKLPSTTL
# [4] = target: Cyclin-dependent kinase 11A (Homo sapiens) (UniProt Q9UQ88); experiment: Binding affinity to wild-type human partial length CDC2L2 (D391 to K730 residues) expressed in bacterial expression system assessed as residual binding level at 10 uM by Kinomescan method relative to control
# [5] = target: Calcium/calmodulin-dependent protein kinase type IV (Homo sapiens) (UniProt Q16566); experiment: Binding affinity to wild-type human partial length CAMK4 (A22 to A322 residues) expressed in bacterial expression system assessed as residual binding level at 10 uM by Kinomescan method relative to control
# Chain of Calcium/calmodulin-dependent protein kinase type IV (Homo sapiens) (Q16566 whole entry, the tested form may be a part): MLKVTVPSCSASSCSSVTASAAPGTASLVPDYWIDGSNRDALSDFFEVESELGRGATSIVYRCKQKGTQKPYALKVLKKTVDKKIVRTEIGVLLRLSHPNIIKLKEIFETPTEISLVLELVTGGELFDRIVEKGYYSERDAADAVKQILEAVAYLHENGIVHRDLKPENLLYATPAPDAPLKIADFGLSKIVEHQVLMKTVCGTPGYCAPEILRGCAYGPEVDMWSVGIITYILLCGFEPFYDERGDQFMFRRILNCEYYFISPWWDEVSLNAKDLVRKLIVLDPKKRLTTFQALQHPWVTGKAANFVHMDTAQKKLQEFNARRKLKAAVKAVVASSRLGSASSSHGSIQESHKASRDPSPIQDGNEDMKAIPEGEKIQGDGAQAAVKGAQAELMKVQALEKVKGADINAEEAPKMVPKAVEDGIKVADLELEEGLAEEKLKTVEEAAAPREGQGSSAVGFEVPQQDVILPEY
# [6] = target: Tyrosine-protein kinase Fes/Fps (Homo sapiens) (UniProt P07332); experiment: Binding affinity to wild-type human partial length FES (I527 to R822 residues) expressed in bacterial expression system assessed as residual binding level at 10 uM by Kinomescan method relative to control
# [7] = target: Serine/threonine-protein kinase PAK 5 (Homo sapiens) (UniProt Q9P286); experiment: Binding affinity to wild-type human partial length PAK7 (Y400 to H719 residues) expressed in bacterial expression system assessed as residual binding level at 10 uM by Kinomescan method relative to control
# [8] = target: Protein kinase C iota type (Homo sapiens) (UniProt P41743); experiment: Binding affinity to wild-type human partial length PRKCI (H215 to V587 residues) expressed in mammalian expression system assessed as residual binding level at 10 uM by Kinomescan method relative to control
# [9] = tested on: Epidermal growth factor receptor (Homo sapiens), P00533 [UNDEFINED MUTATION]; experiment: Binding affinity to human partial length EGFR L747-E749del/A750P mutant expressed in bacterial expression system assessed as residual binding level at 10 uM by Kinomescan method relative to control
# Chain of Epidermal growth factor receptor (Homo sapiens), P00533 [UNDEFINED MUTATION] (P00533 whole entry, looked up, stated change not applied, the tested form may be a part): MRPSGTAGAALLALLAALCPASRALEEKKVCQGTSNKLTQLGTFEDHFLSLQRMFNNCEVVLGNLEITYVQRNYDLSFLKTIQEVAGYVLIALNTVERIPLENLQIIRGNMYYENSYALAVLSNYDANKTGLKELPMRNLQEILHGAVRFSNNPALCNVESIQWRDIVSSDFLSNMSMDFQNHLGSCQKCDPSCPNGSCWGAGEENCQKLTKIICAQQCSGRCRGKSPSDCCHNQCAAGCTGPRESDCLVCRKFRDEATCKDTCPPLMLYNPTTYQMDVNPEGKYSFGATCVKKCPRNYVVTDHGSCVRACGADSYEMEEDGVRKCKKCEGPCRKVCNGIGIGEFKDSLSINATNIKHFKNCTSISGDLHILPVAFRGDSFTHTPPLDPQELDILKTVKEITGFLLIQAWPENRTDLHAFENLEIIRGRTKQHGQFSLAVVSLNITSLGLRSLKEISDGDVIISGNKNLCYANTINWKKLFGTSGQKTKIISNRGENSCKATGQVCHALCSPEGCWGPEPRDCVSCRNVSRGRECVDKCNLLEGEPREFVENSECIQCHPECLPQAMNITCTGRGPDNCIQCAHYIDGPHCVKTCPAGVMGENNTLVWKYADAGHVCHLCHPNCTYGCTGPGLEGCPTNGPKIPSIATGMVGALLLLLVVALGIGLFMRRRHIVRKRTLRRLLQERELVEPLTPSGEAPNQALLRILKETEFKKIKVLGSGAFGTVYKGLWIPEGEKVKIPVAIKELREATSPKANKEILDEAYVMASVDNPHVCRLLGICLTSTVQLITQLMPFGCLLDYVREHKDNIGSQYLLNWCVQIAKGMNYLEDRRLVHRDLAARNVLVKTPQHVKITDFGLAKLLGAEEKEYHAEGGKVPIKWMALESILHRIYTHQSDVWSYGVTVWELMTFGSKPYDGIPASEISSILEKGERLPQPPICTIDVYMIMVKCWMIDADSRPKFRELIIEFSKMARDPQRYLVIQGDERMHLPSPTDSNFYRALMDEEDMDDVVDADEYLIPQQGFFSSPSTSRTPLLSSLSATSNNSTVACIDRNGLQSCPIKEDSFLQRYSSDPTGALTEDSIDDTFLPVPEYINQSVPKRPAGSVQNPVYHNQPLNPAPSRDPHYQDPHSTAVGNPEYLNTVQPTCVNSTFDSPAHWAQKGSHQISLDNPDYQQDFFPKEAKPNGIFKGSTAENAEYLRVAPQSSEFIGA
# [10] = target: Epidermal growth factor receptor (Homo sapiens) (UniProt P00533); experiment: Binding affinity to wild-type human partial length EGFR (R669 to V1011 residues) expressed in bacterial expression system assessed as residual binding level at 10 uM by Kinomescan method relative to control
# Chain of Epidermal growth factor receptor (Homo sapiens) (P00533 whole entry, the tested form may be a part): as the sequence (P00533 whole entry, looked up, stated change not applied, the tested form may be a part) above
# [11] = tested on: Receptor-type tyrosine-protein kinase FLT3 (Homo sapiens), P36888 [D835H]; experiment: Binding affinity to human partial length FLT3 D835H mutant (V592 to Y969 residues) expressed in bacterial expression system assessed as residual binding level at 10 uM by Kinomescan method relative to control
# [12] = target: Interleukin-1 receptor-associated kinase 3 (Homo sapiens) (UniProt Q9Y616); experiment: Binding affinity to wild-type human partial length IRAK3 (V147 to E596 residues) expressed in bacterial expression system assessed as residual binding level at 10 uM by Kinomescan method relative to control
# Chain of Interleukin-1 receptor-associated kinase 3 (Homo sapiens) (Q9Y616 whole entry, the tested form may be a part): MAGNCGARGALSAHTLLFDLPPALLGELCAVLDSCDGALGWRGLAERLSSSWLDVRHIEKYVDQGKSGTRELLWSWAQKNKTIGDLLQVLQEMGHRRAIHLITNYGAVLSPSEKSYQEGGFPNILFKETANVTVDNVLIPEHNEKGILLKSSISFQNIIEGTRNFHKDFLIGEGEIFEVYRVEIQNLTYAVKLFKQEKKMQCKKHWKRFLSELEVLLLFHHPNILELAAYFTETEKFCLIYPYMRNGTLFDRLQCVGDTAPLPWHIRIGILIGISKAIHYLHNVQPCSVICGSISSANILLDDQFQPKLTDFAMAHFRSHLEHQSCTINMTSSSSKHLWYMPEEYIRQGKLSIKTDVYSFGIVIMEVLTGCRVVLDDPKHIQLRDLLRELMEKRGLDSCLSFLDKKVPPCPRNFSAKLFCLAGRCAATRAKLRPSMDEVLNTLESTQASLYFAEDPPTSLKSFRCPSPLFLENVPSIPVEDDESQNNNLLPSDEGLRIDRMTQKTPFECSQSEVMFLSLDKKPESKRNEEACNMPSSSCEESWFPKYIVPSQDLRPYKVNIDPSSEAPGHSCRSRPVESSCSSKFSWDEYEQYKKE
# [13] = target: Mitogen-activated protein kinase kinase kinase 1 (Homo sapiens) (UniProt Q13233); experiment: Binding affinity to wild-type human partial length MAP3K1 (L1202 to W1512 residues) expressed in mammalian expression system assessed as residual binding level at 10 uM by Kinomescan method relative to control
# [14] = tested on: Phosphatidylinositol 4,5-bisphosphate 3-kinase catalytic subunit alpha isoform (Homo sapiens), P42336 [C420R]; experiment: Binding affinity to human partial length PIK3CA C420R mutant (R108 to N1068 residues) expressed in mammalian expression system assessed as residual binding level at 10 uM by Kinomescan method relative to control
# [15] = tested on: Epidermal growth factor receptor (Homo sapiens), P00533 [UNDEFINED MUTATION]; experiment: Binding affinity to human partial length EGFR L747-S752del/P753S mutant expressed in bacterial expression system assessed as residual binding level at 10 uM by Kinomescan method relative to control
# [16] = target: Homeodomain-interacting protein kinase 1 (Homo sapiens) (UniProt Q86Z02); experiment: Binding affinity to wild-type human partial length HIPK1 (M146 to I555 residues) expressed in mammalian expression system assessed as residual binding level at 10 uM by Kinomescan method relative to control
# [17] = target: Mitogen-activated protein kinase kinase kinase 13 (Homo sapiens) (UniProt O43283); experiment: Binding affinity to wild-type human full length LZK (M1 to W966 residues) expressed in mammalian expression system assessed as residual binding level at 10 uM by Kinomescan method relative to control
# [18] = target: Serine/threonine-protein kinase PLK4 (Homo sapiens) (UniProt O00444); experiment: Binding affinity to wild-type human partial length PLK4 (M1 to S273 residues) expressed in mammalian expression system assessed as residual binding level at 10 uM by Kinomescan method relative to control
# [19] = target: Receptor-interacting serine/threonine-protein kinase 4 (Homo sapiens) (UniProt P57078); experiment: Binding affinity to wild-type human partial length RIPK4 (M1 to V303 residues) expressed in mammalian expression system assessed as residual binding level at 10 uM by Kinomescan method relative to control
# [20] = target: Mast/stem cell growth factor receptor Kit (Homo sapiens) (UniProt P10721); experiment: Binding affinity to wild-type human partial length autoinhibited KIT (Y545 to D952 residues) expressed in mammalian expression system assessed as residual binding level at 10 uM by Kinomescan method relative to control
# [21] = target: Fibroblast growth factor receptor 3 (Homo sapiens) (UniProt P22607); experiment: Binding affinity to wild-type human partial length FGFR3 (R442 to S771 residues) expressed in bacterial expression system assessed as residual binding level at 10 uM by Kinomescan method relative to control
# [22] = target: Dual specificity tyrosine-phosphorylation-regulated kinase 1A (Homo sapiens) (UniProt Q13627); experiment: Binding affinity to wild-type human partial length DYRK1A (H129 to S509 residues) expressed in mammalian expression system assessed as residual binding level at 10 uM by Kinomescan method relative to control
# [23] = target: Inhibitor of nuclear factor kappa-B kinase subunit alpha (Homo sapiens) (UniProt O15111); experiment: Binding affinity to wild-type human full length IKK-alpha (M1 to E745 residues) expressed in mammalian expression system assessed as residual binding level at 10 uM by Kinomescan method relative to control
# [24] = target: Glycogen synthase kinase-3 alpha (Homo sapiens) (UniProt P49840); experiment: Binding affinity to wild-type human full length GSK3A (M1 to S483 residues) expressed in bacterial expression system assessed as residual binding level at 10 uM by Kinomescan method relative to control
compound,measurement,setting,value
CC(C)N1C(=O)C(NCCCN(C)C)=C(c2cn(C)c3ccccc23)C1=O.Cl,Activity,[1],85%
same,Activity,[2],99%
same,Activity,[3],100%
same,Activity,[4],96%
same,Activity,[5],80%
same,Activity,[6],100%
same,Activity,[7],100%
same,Activity,[8],88%
same,Activity,[9],88%
same,Activity,[10],89%
same,Activity,[11],88%
same,Activity,[12],85%
same,Activity,[13],68%
same,Activity,[14],75%
same,Activity,[15],88%
same,Activity,[16],100%
same,Activity,[17],100%
same,Activity,[18],97%
same,Activity,[19],100%
same,Activity,[20],66%
same,Activity,[21],100%
same,Activity,[22],87%
same,Activity,[23],81%
same,Activity,[24],83%
